Results reported in ChEMBL document CHEMBL1201862, “PubChem BioAssay data set” (2004).
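Protocol summary: plate cells (96-well), add compound at 5 concentrations, incubate 48 h, interpolate endpoints linearly. The concentration for 50% growth inhibition is given as GI50.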 The source made the active and inactive calls. Rule as the data show it: active = GI50 up to about 1.1 µM and inactive = higher.

Tests used:
Test in all cases: NCI tumour cell line growth inhibition, 48 h
COLO 205 = test system: COLO 205
DU-145 = test system: DU-145
HCC 2998 = test system: HCC 2998
HCT-116 = test system: HCT-116
MCF7 = test system: MCF7
MDA-MB-435 = test system: MDA-MB-435
MOLT-4 = test system: MOLT-4
NCI-H522 = test system: NCI-H522
NCI/ADR-RES = test system: NCI/ADR-RES
OVCAR-4 = test system: OVCAR-4
OVCAR-5 = test system: OVCAR-5
OVCAR-8 = test system: OVCAR-8
RPMI-8226 = test system: RPMI-8226
SF-295 = test system: SF-295
SK-MEL-28 = test system: SK-MEL-28
SK-MEL-2 = test system: SK-MEL-2
SNB-75 = test system: SNB-75
U-251 = test system: U-251
UACC-257 = test system: UACC-257
HL-60 = test system: HL-60

Measured: GI50

Cc1cc(C(C)(C)C)cc(CNC2CCCCC2)c1O
inactive: COLO 205 17.3 µM | DU-145 21.3 µM | HCC 2998 3 µM | HCT-116 15.4 µM | MCF7 18.1 µM | MDA-MB-435 19.5 µM | MOLT-4 31.3 µM | NCI-H522 12.6 µM | NCI/ADR-RES 16.4 µM | OVCAR-4 19.5 µM | OVCAR-5 16.2 µM | OVCAR-8 17.3 µM | RPMI-8226 17.5 µM | SF-295 16 µM | SK-MEL-28 16.7 µM | SK-MEL-2 17.7 µM | SNB-75 12.2 µM | U-251 16.3 µM | UACC-257 14.9 µM

CCN(CC(=O)O)CC(=O)O
inactive: COLO 205 > 100 µM | DU-145 > 100 µM | HCC 2998 > 100 µM | HCT-116 > 100 µM | MCF7 > 100 µM | MDA-MB-435 > 100 µM | MOLT-4 > 100 µM | NCI-H522 > 100 µM | NCI/ADR-RES > 100 µM | OVCAR-4 > 100 µM | OVCAR-5 > 100 µM | OVCAR-8 > 100 µM | RPMI-8226 > 100 µM | SF-295 > 100 µM | SK-MEL-28 > 100 µM | SK-MEL-2 > 100 µM | SNB-75 > 100 µM | U-251 > 100 µM | UACC-257 > 100 µM

Cc1ccc2c(=O)c(-c3nnsn3)c[nH]c2n1
inactive: COLO 205 > 100 µM | DU-145 > 100 µM | HCT-116 > 100 µM | HL-60 > 100 µM | MCF7 > 100 µM | MDA-MB-435 > 100 µM | MOLT-4 > 100 µM | NCI-H522 > 100 µM | NCI/ADR-RES > 100 µM | OVCAR-4 > 100 µM | OVCAR-5 > 100 µM | OVCAR-8 > 100 µM | RPMI-8226 > 100 µM | SF-295 > 100 µM | SK-MEL-28 > 100 µM | SK-MEL-2 > 100 µM | U-251 > 100 µM | UACC-257 > 100 µM

O=c1onc2n1-c1ccc(Cl)cc1C(=S)N1CSCC21 (stereo not given)
inactive: COLO 205 18.4 µM | DU-145 34.2 µM | HCC 2998 19.5 µM | HCT-116 13.7 µM | MCF7 28.4 µM | MDA-MB-435 9.46 µM | MOLT-4 30.1 µM | NCI-H522 21.9 µM | NCI/ADR-RES 17.3 µM | OVCAR-4 59.2 µM | OVCAR-5 31.3 µM | OVCAR-8 18.1 µM | RPMI-8226 31.3 µM | SF-295 17.5 µM | SK-MEL-28 52.5 µM | SK-MEL-2 25.1 µM | SNB-75 30.4 µM | U-251 18.2 µM | UACC-257 > 100 µM

Cc1cccc(NC2=NCCO2)c1Cl
inactive: COLO 205 > 100 µM | DU-145 > 100 µM | HCC 2998 > 100 µM | HCT-116 > 100 µM | HL-60 > 100 µM | MCF7 > 100 µM | MDA-MB-435 > 100 µM | MOLT-4 > 100 µM | NCI/ADR-RES > 100 µM | OVCAR-4 > 100 µM | OVCAR-5 > 100 µM | OVCAR-8 > 100 µM | RPMI-8226 > 100 µM | SF-295 > 100 µM | SK-MEL-28 > 100 µM | SNB-75 > 100 µM | U-251 > 100 µM | UACC-257 > 100 µM

COc1cc(Oc2nc3cc(F)c(F)cc3nc2-c2ccccc2)cc(OC)c1OC
inactive: COLO 205 > 100 µM | DU-145 > 100 µM | HCT-116 > 100 µM | HL-60 > 100 µM | MCF7 29.5 µM | MDA-MB-435 61.9 µM | MOLT-4 > 100 µM | NCI-H522 13.9 µM | NCI/ADR-RES > 100 µM | OVCAR-4 79.3 µM | OVCAR-5 > 100 µM | OVCAR-8 > 100 µM | SF-295 46.3 µM | SK-MEL-28 > 100 µM | SK-MEL-2 > 100 µM | SNB-75 20.4 µM | U-251 40.3 µM | UACC-257 > 100 µM

NC(=O)c1ncn(C2C=CC(CP(=O)(O)O)C2)c1N (stereo not given)
inactive: COLO 205 > 100 µM | DU-145 > 100 µM | HCC 2998 > 100 µM | HCT-116 > 100 µM | HL-60 > 100 µM | MCF7 > 100 µM | MDA-MB-435 > 100 µM | MOLT-4 > 100 µM | NCI/ADR-RES > 100 µM | OVCAR-4 > 100 µM | OVCAR-5 > 100 µM | OVCAR-8 > 100 µM | RPMI-8226 > 100 µM | SF-295 > 100 µM | SK-MEL-28 > 100 µM | SK-MEL-2 > 100 µM | SNB-75 > 100 µM | U-251 > 100 µM | UACC-257 > 100 µM

CC1(CCCC2(C)CCNC2=O)OCCO1 (stereo not given)
inactive: COLO 205 > 10 µM | DU-145 > 10 µM | HCC 2998 > 10 µM | HCT-116 > 10 µM | HL-60 > 10 µM | MCF7 > 10 µM | MDA-MB-435 > 10 µM | MOLT-4 > 10 µM | NCI/ADR-RES > 10 µM | OVCAR-4 > 10 µM | OVCAR-5 > 10 µM | OVCAR-8 > 10 µM | RPMI-8226 > 10 µM | SF-295 > 10 µM | SK-MEL-28 > 10 µM | SK-MEL-2 > 10 µM | SNB-75 > 10 µM | U-251 > 10 µM | UACC-257 > 10 µM

CN(C)CCN1C(=O)CC[C@@]2(C)C1=CC[C@@H]1[C@@H]2CC[C@@]2(C)[C@H]1CC[C@]2(C)O
inactive: COLO 205 > 100 µM | DU-145 > 100 µM | HCT-116 71.6 µM | HL-60 > 100 µM | MCF7 > 100 µM | MDA-MB-435 > 100 µM | MOLT-4 > 100 µM | NCI-H522 > 100 µM | NCI/ADR-RES > 100 µM | OVCAR-4 > 100 µM | OVCAR-5 > 100 µM | OVCAR-8 > 100 µM | RPMI-8226 > 100 µM | SF-295 > 100 µM | SK-MEL-28 > 100 µM | SK-MEL-2 > 100 µM | SNB-75 > 100 µM | U-251 > 100 µM | UACC-257 > 100 µM

CN(C)CCNc1nc2c(no[n+]2[O-])c2ccccc12.[O-][Cl+3]([O-])([O-])O
inactive: COLO 205 16.9 µM | DU-145 6.19 µM | HCC 2998 28.2 µM | HCT-116 12.4 µM | MCF7 19.7 µM | MDA-MB-435 18 µM | MOLT-4 32.4 µM | NCI-H522 24.4 µM | NCI/ADR-RES 31.2 µM | OVCAR-4 30.4 µM | OVCAR-5 38 µM | OVCAR-8 14.6 µM | RPMI-8226 52.7 µM | SF-295 28 µM | SK-MEL-28 18.5 µM | SK-MEL-2 19.4 µM | SNB-75 23.7 µM | U-251 31.5 µM | UACC-257 16.8 µM

COc1ccc(/C=C2\CN(C)Cc3c2nc(O)c(C#N)c3-c2ccc(OC)cc2)cc1
inactive: COLO 205 66.1 µM | DU-145 97.5 µM | HCT-116 60.7 µM | HL-60 13.3 µM | MCF7 16.5 µM | MDA-MB-435 > 100 µM | MOLT-4 42 µM | NCI-H522 48.8 µM | NCI/ADR-RES 56.2 µM | OVCAR-4 37.1 µM | OVCAR-5 > 100 µM | OVCAR-8 31.3 µM | RPMI-8226 21.7 µM | SF-295 38.3 µM | SK-MEL-28 > 100 µM | SK-MEL-2 94 µM | U-251 80.2 µM | UACC-257 > 100 µM
